Patent US12252524B2, “GIP/GLP1 co-agonist compounds” (Eli Lilly and Company, priority 2018, dated 2025)
Numbered stars: 1 amine (or outer) side, 2 acyl side, 3 side chain; on linkers, the order of the positions; unused ones are H or OH. Square brackets hold non-standard residues; d marks the D form. Side chains are listed from the residue outwards. Peptide text beside a SMILES is read from it. * marks the point of attachment. C20 diacid = O=C(O)CCCCCCCCCCCCCCCCCCC(=O)*; C18 diacid = O=C(O)CCCCCCCCCCCCCCCCC(=O)*; αMePhe(2-F) = C[C@](N)(Cc1ccccc1F)C(=O)O; γGlu = O=C(O)[C@H](CCC(=O)[*:2])N[*:1]; αMeY = C[C@](N)(Cc1ccc(O)cc1)C(=O)O; αMeF = C[C@](N)(Cc1ccccc1)C(=O)O; αMeL = CC(C)C[C@](C)(N)C(=O)O; Orn = NCCC[C@H](N)C(=O)O; AEEA = NCCOCCOCC(=O)O; Aib = CC(C)(N)C(=O)O

Columns and labels:
human Gcg receptor = target: T1, human Gcg receptor (Homo sapiens, UniProt P47871); test: [125I]-Glucagon binding (SPA), human Gcg receptor; conditions: read-out: hGLcgR Ki, nM (SEM, n)
T1 construct: expressed in transfected cells; crude membranes
Outline: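 Cell pellets were lysed in hypotonic Tris buffer, pH 7.5, homogenized, and spun at low then high speed to give crude membranes. Ki was derived from the fitted IC50.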

human GIP receptor = target: T2, human GIP receptor (Homo sapiens, UniProt P48546); test: [125I]-GIP binding (SPA), human GIP receptor; conditions: read-out: hGIPR Ki, nM (SEM, n)
T2 construct: expressed in transfected cells; crude membranes
T2 sequence (P48546 22-466): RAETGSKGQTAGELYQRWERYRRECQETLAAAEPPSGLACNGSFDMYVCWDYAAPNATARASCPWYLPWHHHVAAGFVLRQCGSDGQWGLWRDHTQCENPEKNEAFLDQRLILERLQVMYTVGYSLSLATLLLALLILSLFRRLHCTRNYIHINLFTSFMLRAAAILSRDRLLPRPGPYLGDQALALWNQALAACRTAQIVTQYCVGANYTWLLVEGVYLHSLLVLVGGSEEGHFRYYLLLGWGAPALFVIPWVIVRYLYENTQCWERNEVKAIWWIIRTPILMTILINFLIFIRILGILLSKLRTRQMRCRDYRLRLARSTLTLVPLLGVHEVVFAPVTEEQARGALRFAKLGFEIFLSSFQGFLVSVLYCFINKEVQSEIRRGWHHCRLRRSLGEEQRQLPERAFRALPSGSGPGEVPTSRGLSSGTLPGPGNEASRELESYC

[1] = target: T3, gastric inhibitory peptide receptor (GIPR) (Homo sapiens, UniProt P48546); test: cAMP pharmacological functional assay in presence of casein, hGIPR; assay type: cell-based; conditions: HEK293 cells expressing hGIPR, 0.1% Casein, geometric mean; read-out: hGIPR cAMP Rel EC50 nM (SEM, n)
T3 sequence (P48546 22-466): T2 sequence (P48546 22-466)

[2] = target: human GLP-1 receptor (GLP-1R) (Homo sapiens, UniProt P43220); test: cAMP pharmacological functional assay in presence of casein, hGLP-1R; assay type: cell-based; conditions: HEK293 cells expressing hGLP-1R, 0.1% Casein, geometric mean; read-out: hGLP1R cAMP Rel EC50 nM (SEM, n)
human GLP-1R = human GLP-1R (Homo sapiens, UniProt P43220); test: [125I]-GLP-1 binding (SPA), human GLP-1 receptor; design: expressed in transfected cells; crude membranes; conditions: read-out: hGLP1R Ki, (nM) (SEM, n)
Outline: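 Ki values are geometric means with SEM over independent replicates on different days, derived from IC50s fitted by four-parameter nonlinear regression. The assay used crude cell membranes in HEPES buffer, pH 7.4, containing CaCl2, MgCl2, bacitracin and TWEEN-20.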

T1 sequence (P47871 26-477): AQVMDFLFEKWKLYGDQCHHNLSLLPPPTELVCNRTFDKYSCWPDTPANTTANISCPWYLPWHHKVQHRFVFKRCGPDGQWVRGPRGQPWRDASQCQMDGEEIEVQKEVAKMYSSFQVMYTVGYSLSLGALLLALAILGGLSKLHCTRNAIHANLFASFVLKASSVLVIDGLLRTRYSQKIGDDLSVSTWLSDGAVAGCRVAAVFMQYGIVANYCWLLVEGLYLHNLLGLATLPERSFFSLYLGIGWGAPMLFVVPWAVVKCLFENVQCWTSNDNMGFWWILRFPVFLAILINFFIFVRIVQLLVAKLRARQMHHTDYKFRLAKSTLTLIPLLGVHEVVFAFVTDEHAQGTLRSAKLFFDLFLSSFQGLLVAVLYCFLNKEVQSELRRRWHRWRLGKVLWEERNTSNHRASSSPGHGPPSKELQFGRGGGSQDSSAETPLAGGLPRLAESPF
Sequence of human GLP-1 receptor (GLP-1R) (P43220 24-463): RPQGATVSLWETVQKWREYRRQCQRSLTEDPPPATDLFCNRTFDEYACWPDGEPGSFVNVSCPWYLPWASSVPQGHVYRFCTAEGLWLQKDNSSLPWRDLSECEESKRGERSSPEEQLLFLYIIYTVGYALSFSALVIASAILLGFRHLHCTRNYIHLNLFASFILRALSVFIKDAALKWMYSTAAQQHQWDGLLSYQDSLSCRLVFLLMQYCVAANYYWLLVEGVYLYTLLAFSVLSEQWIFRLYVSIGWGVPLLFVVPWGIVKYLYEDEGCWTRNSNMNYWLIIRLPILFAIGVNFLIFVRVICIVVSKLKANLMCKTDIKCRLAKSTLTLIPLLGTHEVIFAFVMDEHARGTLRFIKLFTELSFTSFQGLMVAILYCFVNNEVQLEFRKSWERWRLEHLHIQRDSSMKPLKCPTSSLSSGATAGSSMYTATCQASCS
Sequence of human GLP-1R (P43220 24-463): as above

Row | Compound | Ki (human Gcg receptor) [nM] | Ki (human GIP receptor) [nM] | EC50 [1] [nM] | EC50 [2] [nM] | Ki (human GLP-1R) [nM]
1 | CC[C@H](C)[C@H](NC(=O)[C@H](CC(C)C)NC(=O)[C@](C)(Cc1ccc(O)cc1)NC(=O)[C@@H](CCC(=O)O)NC(=O)[C@@H](NC(=O)[C@H](Cc1ccccc1)NC(=O)[C@H](CCC(=O)O)NC(=O)C(C)(C)NC(=O)[C@H](CCC(N)=O)NC(=O)[C@H](C)NC(=O)[C@H](CCCCNC(=O)COCCOCCNC(=O)COCCOCCNC(=O)CC[C@H](NC(=O)CCCCCCCCCCCCCCCCC(=O)O)C(=O)O)NC(=O)[C@H](CCCN)NC(=O)[C@H](CC(=O)O)NC(=O)[C@H](CC(C)C)NC(=O)[C@](C)(CC(C)C)NC(=O)[C@@H](NC(=O)[C@H](CO)NC(=O)[C@H](C)NC(=O)[C@H](CC(=O)O)NC(=O)[C@H](CO)NC(=O)[C@@H](NC(=O)[C@](C)(Cc1ccccc1F)NC(=O)[C@@H](NC(=O)CNC(=O)[C@H](CCC(=O)O)NC(=O)C(C)(C)NC(=O)[C@@H](N)Cc1ccc(O)cc1)[C@@H](C)O)[C@@H](C)O)[C@@H](C)CC)[C@@H](C)CC)C(=O)N[C@@H](CCC(=O)O)C(=O)NCC(=O)NCC(=O)N1CCC[C@H]1C(=O)N[C@@H](CO)C(=O)N[C@@H](CO)C(=O)NCC(=O)N[C@@H](C)C(=O)N1CCC[C@H]1C(=O)N1CCC[C@H]1C(=O)N1CCC[C@H]1C(=O)N[C@@H](CO)C(N)=O [Example 237] (H-Y[Aib]EGT[αMePhe(2-F)]TSDASI[αMeL]LD[Orn]K([AEEA-AEEA-γGlu-C18 diacid])AQ[Aib]EFI[dE][αMeY]LIEGGPSSGAPPPS-NH2) | > 1060 | 0.131 | 0.0883 | 0.0187 | 1.04
2 | CC[C@H](C)[C@H](NC(=O)[C@H](CC(C)C)NC(=O)[C@H](Cc1ccc(O)cc1)NC(=O)[C@H](CCC(=O)O)NC(=O)[C@@H](NC(=O)[C@H](Cc1ccccc1)NC(=O)[C@H](C)NC(=O)C(C)(C)NC(=O)[C@H](CCC(N)=O)NC(=O)[C@H](C)NC(=O)[C@H](CCCCNC(=O)COCCOCCNC(=O)COCCOCCNC(=O)CC[C@H](NC(=O)CCCCCCCCCCCCCCCCCCC(=O)O)C(=O)O)NC(=O)[C@H](CCCCN)NC(=O)[C@H](CC(=O)O)NC(=O)[C@H](CC(C)C)NC(=O)[C@](C)(CC(C)C)NC(=O)[C@@H](NC(=O)[C@H](CO)NC(=O)[C@H](Cc1ccc(O)cc1)NC(=O)[C@H](CC(=O)O)NC(=O)[C@H](CO)NC(=O)[C@@H](NC(=O)[C@H](Cc1ccccc1)NC(=O)[C@@H](NC(=O)CNC(=O)[C@H](CCC(=O)O)NC(=O)C(C)(C)NC(=O)[C@@H](N)Cc1ccc(O)cc1)[C@@H](C)O)[C@@H](C)O)[C@@H](C)CC)[C@@H](C)CC)C(=O)N[C@@H](CCC(=O)O)C(=O)NCC(=O)NCC(=O)N1CCC[C@H]1C(=O)N[C@@H](CO)C(=O)N[C@@H](CO)C(=O)NCC(=O)N[C@@H](C)C(=O)N1CCC[C@H]1C(=O)N1CCC[C@H]1C(=O)N1CCC[C@H]1C(=O)N[C@@H](CO)C(N)=O [Example 20] | 228 | 0.0849 | 0.0556 | 0.117 | 3.3
3 | CC[C@H](C)[C@H](NC(=O)[C@H](CC(C)C)NC(=O)[C@](C)(Cc1ccc(O)cc1)NC(=O)[C@@H](CCC(=O)O)NC(=O)[C@@H](NC(=O)[C@H](Cc1ccccc1)NC(=O)[C@H](CCC(=O)O)NC(=O)C(C)(C)NC(=O)[C@H](CCC(N)=O)NC(=O)[C@H](C)NC(=O)[C@H](CCCCNC(=O)COCCOCCNC(=O)COCCOCCNC(=O)CC[C@H](NC(=O)CCCCCCCCCCCCCCCCC(=O)O)C(=O)O)NC(=O)[C@H](CCCN)NC(=O)[C@H](CC(=O)O)NC(=O)[C@H](CC(C)C)NC(=O)[C@](C)(CC(C)C)NC(=O)[C@@H](NC(=O)[C@H](CO)NC(=O)[C@H](CC(C)C)NC(=O)[C@H](CC(=O)O)NC(=O)[C@H](CO)NC(=O)[C@@H](NC(=O)[C@](C)(Cc1ccccc1F)NC(=O)[C@@H](NC(=O)CNC(=O)[C@H](CCC(=O)O)NC(=O)C(C)(C)NC(=O)[C@@H](N)Cc1ccc(O)cc1)[C@@H](C)O)[C@@H](C)O)[C@@H](C)CC)[C@@H](C)CC)C(=O)N[C@@H](CCC(=O)O)C(=O)NCC(=O)NCC(=O)N1CCC[C@H]1C(=O)N[C@@H](CO)C(=O)N[C@@H](CO)C(=O)NCC(=O)N[C@@H](C)C(=O)N1CCC[C@H]1C(=O)N1CCC[C@H]1C(=O)N1CCC[C@H]1C(=O)N[C@@H](CO)C(N)=O [Example 238] (H-Y[Aib]EGT[αMePhe(2-F)]TSDLSI[αMeL]LD[Orn]K([AEEA-AEEA-γGlu-C18 diacid])AQ[Aib]EFI[dE][αMeY]LIEGGPSSGAPPPS-NH2) | 230 | 0.0403 | 0.0296 | 0.0241 | 0.548
4 | CC[C@H](C)[C@H](NC(=O)[C@H](CC(C)C)NC(=O)[C@H](Cc1ccc(O)cc1)NC(=O)[C@@H](CCC(=O)O)NC(=O)[C@@H](NC(=O)[C@H](Cc1ccccc1)NC(=O)[C@H](CCC(=O)O)NC(=O)C(C)(C)NC(=O)[C@H](CCC(N)=O)NC(=O)[C@H](C)NC(=O)[C@H](CCCCNC(=O)COCCOCCNC(=O)COCCOCCNC(=O)CC[C@H](NC(=O)CCCCCCCCCCCCCCCCC(=O)O)C(=O)O)NC(=O)[C@H](CCCN)NC(=O)[C@H](CC(=O)O)NC(=O)[C@H](CC(C)C)NC(=O)[C@H](CC(C)C)NC(=O)[C@@H](NC(=O)[C@H](CO)NC(=O)[C@H](Cc1ccc(O)cc1)NC(=O)[C@H](CC(=O)O)NC(=O)[C@H](CO)NC(=O)[C@@H](NC(=O)[C@](C)(Cc1ccccc1F)NC(=O)[C@@H](NC(=O)CNC(=O)[C@H](CCC(=O)O)NC(=O)C(C)(C)NC(=O)[C@@H](N)Cc1ccc(O)cc1)[C@@H](C)O)[C@@H](C)O)[C@@H](C)CC)[C@@H](C)CC)C(=O)N[C@@H](CCC(=O)O)C(=O)NCC(=O)NCC(=O)N1CCC[C@H]1C(=O)N[C@@H](CO)C(=O)N[C@@H](CO)C(=O)NCC(=O)N[C@@H](C)C(=O)N1CCC[C@H]1C(=O)N1CCC[C@H]1C(=O)N1CCC[C@H]1C(=O)N[C@@H](CO)C(N)=O [Example 248] (H-Y[Aib]EGT[αMePhe(2-F)]TSDYSILLD[Orn]K([AEEA-AEEA-γGlu-C18 diacid])AQ[Aib]EFI[dE]YLIEGGPSSGAPPPS-NH2) | > 1050 | 0.0397 | 0.0328 | 0.0428 | 2.4
5 | CC[C@H](C)[C@H](NC(=O)[C@H](CC(C)C)NC(=O)[C@H](Cc1ccc(O)cc1)NC(=O)[C@H](CCC(=O)O)NC(=O)[C@@H](NC(=O)[C@H](Cc1ccccc1)NC(=O)[C@H](C)NC(=O)C(C)(C)NC(=O)[C@H](CCC(N)=O)NC(=O)[C@H](C)NC(=O)[C@H](CCCCNC(=O)COCCOCCNC(=O)COCCOCCNC(=O)CC[C@H](NC(=O)CCCCCCCCCCCCCCCCCCC(=O)O)C(=O)O)NC(=O)[C@H](CCCCN)NC(=O)[C@H](CC(=O)O)NC(=O)[C@H](CC(C)C)NC(=O)[C@](C)(CC(C)C)NC(=O)[C@@H](NC(=O)[C@H](CO)NC(=O)[C@H](Cc1ccc(O)cc1)NC(=O)[C@H](CC(=O)O)NC(=O)[C@H](CO)NC(=O)[C@@H](NC(=O)[C@](C)(Cc1ccccc1)NC(=O)[C@@H](NC(=O)CNC(=O)[C@H](CCC(=O)O)NC(=O)C(C)(C)NC(=O)[C@@H](N)Cc1ccc(O)cc1)[C@@H](C)O)[C@@H](C)O)[C@@H](C)CC)[C@@H](C)CC)C(=O)N[C@@H](CCC(=O)O)C(=O)N[C@@H](C)C(=O)NCC(=O)N1CCC[C@H]1C(=O)N[C@@H](CO)C(=O)N[C@@H](CO)C(=O)NCC(=O)N[C@@H](C)C(=O)N1CCC[C@H]1C(=O)N1CCC[C@H]1C(=O)N1CCC[C@H]1C(=O)N[C@@H](CO)C(N)=O [Example 126] (H-Y[Aib]EGT[αMeF]TSDYSI[αMeL]LDKK([AEEA-AEEA-γGlu-C20 diacid])AQ[Aib]AFIEYLIEAGPSSGAPPPS-NH2; N-terminus assumed) | 101 | 0.0644 | 0.0685 | 0.0715 | 1.46
